According to ChEMBL document CHEMBL3885861, “Open TG-GATES”:

Species: Rattus norvegicus
Assay: Open TG-GATES - Regimen: Single
Type: toxicity, organism-based, Sprague-Dawley
Design: regimen Single, gender Male, age 6 weeks
Conditions: in vivo, po, route gavage; for TC / TG / TP / gamma-GTP / ALP / ALT / AST / BUN / CRE / Ca / Cl / DBIL / GLC / K / LDH / Na / RALB / TBIL / IP / PL: tissue Plasma; for APTT / Bas / Eos / Fbg / Hb / Ht / Lym / MCH / MCHC / Mono / Neu / PT / Plat / RBC / Ret / WBC / MCV: tissue Blood; for KIDNEY_L / KIDNEY_R / KIDNEY_TOTAL: tissue Kidney; for LIVER: tissue Liver
[1] = 1000 mg/kg, 24 h, dose level Middle
[2] = 2000 mg/kg, 3 h, dose level High
[3] = 2000 mg/kg, 6 h, dose level High
[4] = 2000 mg/kg, 9 h, dose level High
[5] = 2000 mg/kg, 24 h, dose level High

CCOc1ccc(NC(C)=O)cc1 [PHENACETIN]
TC [1]: 97.2 mg/dL | TG [1]: 92.4 mg/dL | TP [1]: 5.6 g/dL | gamma-GTP [1]: 1.2 IU/L | TERMINAL_BW [2]: 214.4 g | APTT [2]: 17.5 s | Bas [2]: 0% | Eos [2]: 1% | Fbg [2]: 307.2 mg/dL | Hb [2]: 13.9 g/dL | Ht [2]: 41% | Lym [2]: 76.8% | MCH [2]: 21.2 pg | MCHC [2]: 33.8% | Mono [2]: 2.8% | Neu [2]: 19% | PT [2]: 14.2 s | Plat [2]: 115.4 x10_4/uL | RBC [2]: 652.4 x10_4/ul | Ret [2]: 9% | WBC [2]: 60.2 x10_2/uL | KIDNEY_L [2]: 0.9 g | KIDNEY_R [2]: 1 g | KIDNEY_TOTAL [2]: 1.9 g | LIVER [2]: 9.2 g | ALP [2]: 1540.4 IU/L | ALT [2]: 39.8 IU/L | AST [2]: 70.4 IU/L | BUN [2]: 10.2 mg/dL | CRE [2]: 0.1 mg/dL | Ca [2]: 11 mg/dL | Cl [2]: 99.4 meq/L | DBIL [2]: 0 mg/dL | GLC [2]: 240.4 mg/dL | K [2]: 3.7 meq/L | LDH [2]: 78 IU/L | Na [2]: 139 meq/L | RALB [2]: 2.6 g/dL | TBIL [2]: 0.034 mg/dL | TG [2]: 47.4 mg/dL | TP [2]: 5.5 g/dL | gamma-GTP [2]: 1 IU/L | TERMINAL_BW [3]: 209.5 g | Bas [3]: 0% | Eos [3]: 0.4% | Fbg [3]: 308.8 mg/dL | Ht [3]: 40.1% | Lym [3]: 74.2% | MCH [3]: 21.2 pg | MCV [3]: 61.4 fL | Mono [3]: 2.2% | PT [3]: 14.2 s | Plat [3]: 115.7 x10_4/uL | RBC [3]: 653.8 x10_4/ul | Ret [3]: 8.4% | WBC [3]: 47.7 x10_2/uL | KIDNEY_L [3]: 0.9 g | KIDNEY_R [3]: 0.9 g | KIDNEY_TOTAL [3]: 1.8 g | LIVER [3]: 9.1 g | ALP [3]: 1249 IU/L | ALT [3]: 45.6 IU/L | AST [3]: 84 IU/L | BUN [3]: 10.2 mg/dL | CRE [3]: 0.1 mg/dL | Ca [3]: 11.1 mg/dL | Cl [3]: 103 meq/L | DBIL [3]: 0 mg/dL | GLC [3]: 192.2 mg/dL | IP [3]: 9.9 mg/dL | K [3]: 3.8 meq/L | LDH [3]: 93.2 IU/L | Na [3]: 139.2 meq/L | PL [3]: 136.4 mg/dL | RALB [3]: 2.7 g/dL | TBIL [3]: 0.032 mg/dL | TC [3]: 83.8 mg/dL | TP [3]: 5.6 g/dL | gamma-GTP [3]: 1.2 IU/L | TERMINAL_BW [4]: 210.8 g | APTT [4]: 16.8 s | Bas [4]: 0% | Eos [4]: 0.4% | Fbg [4]: 288.4 mg/dL | Hb [4]: 13.3 g/dL | Ht [4]: 38.1% | Lym [4]: 73.6% | MCH [4]: 20.9 pg | MCHC [4]: 35% | MCV [4]: 59.8 fL | Mono [4]: 3.2% | Neu [4]: 22% | PT [4]: 14.3 s | Plat [4]: 123.9 x10_4/uL | RBC [4]: 638.6 x10_4/ul | Ret [4]: 8.7% | WBC [4]: 54.6 x10_2/uL | KIDNEY_L [4]: 0.9 g | KIDNEY_R [4]: 0.9 g | KIDNEY_TOTAL [4]: 1.8 g | LIVER [4]: 9 g | ALP [4]: 1259 IU/L | ALT [4]: 40.6 IU/L | AST [4]: 70.8 IU/L | BUN [4]: 10.2 mg/dL | CRE [4]: 0.1 mg/dL | Ca [4]: 10.9 mg/dL | Cl [4]: 101.2 meq/L | DBIL [4]: 0 mg/dL | GLC [4]: 205.6 mg/dL | IP [4]: 9.1 mg/dL | K [4]: 3.6 meq/L | LDH [4]: 66.8 IU/L | Na [4]: 137.6 meq/L | PL [4]: 163 mg/dL | RALB [4]: 2.5 g/dL | TBIL [4]: 0.034 mg/dL | TC [4]: 99.6 mg/dL | TG [4]: 18 mg/dL | TP [4]: 5.5 g/dL | gamma-GTP [4]: 1.6 IU/L | TERMINAL_BW [5]: 193.2 g | APTT [5]: 18.2 s | Bas [5]: 0.6% | Eos [5]: 0.6% | Fbg [5]: 273.4 mg/dL | Hb [5]: 14.2 g/dL | Ht [5]: 41.5% | Lym [5]: 75% | MCH [5]: 20.8 pg | MCHC [5]: 34.2% | MCV [5]: 60.7 fL | Mono [5]: 2.6% | Neu [5]: 20.8% | PT [5]: 14.5 s | Plat [5]: 138.6 x10_4/uL | RBC [5]: 684.2 x10_4/ul | Ret [5]: 7.5% | WBC [5]: 70 x10_2/uL | KIDNEY_L [5]: 0.9 g | KIDNEY_R [5]: 1 g | KIDNEY_TOTAL [5]: 1.9 g | LIVER [5]: 7.5 g | ALP [5]: 1341.4 IU/L | ALT [5]: 44.8 IU/L | AST [5]: 115 IU/L | BUN [5]: 12 mg/dL | CRE [5]: 0.2 mg/dL | Ca [5]: 10.7 mg/dL | Cl [5]: 104.2 meq/L | DBIL [5]: 0.024 mg/dL | GLC [5]: 171.2 mg/dL | IP [5]: 9.6 mg/dL | K [5]: 4.3 meq/L | LDH [5]: 206 IU/L | Na [5]: 140.8 meq/L | PL [5]: 150.6 mg/dL | RALB [5]: 2.7 g/dL | TBIL [5]: 0.046 mg/dL | TC [5]: 90.4 mg/dL | TG [5]: 52.6 mg/dL | TP [5]: 5.7 g/dL | gamma-GTP [5]: 1 IU/L
